Patent publication US8293777B2, “Angiotensin II receptor antagonists” (Merck Sharp & Dohme, Corp., priority 2008, dated 2012)

Assays:
[1] = system: conscious telemetered dogs; assay: Systolic blood pressure lowering, oral administration to conscious telemetered dogs; format: in vivo; conditions: orally administered at 3 mpk
Source text: Several examples were studied for systolic blood pressure lowering when orally administered to conscious telemetered dogs at 3 mpk (see Data Table 1).

[2] = system: isolated rabbit thoracic aorta preparations; assay: Vessel relaxation in isolated rabbit thoracic aorta preparations; format: cell-based; conditions: Oryctolagus cuniculus; rabbit aortic rings precontracted with noradrenaline, functional endothelium
Description: The ability of the compounds to induce vasorelaxation was tested in vitro in isolated rabbit thoracic aorta preparations (Wanstall J. C. et al., Br. J. Pharmacol., 134:463-472, 2001). Male New Zealand rabbits were anaesthetized with thiopental-Na (50 mg/kg, iv), sacrificed by exsanguinations and then the thorax was opened and the aorta dissected. Aortic ring preparations (4 mm in length) were set up in physiological salt solution (PSS) at 37° C. in small organ chambers (5 ml). The composition of PSS was (mM): NaCl 130, NaHCO3 14.9, KH2PO4 1.2, MgSO4 1.2, HEPES 10, CaCl2, ascorbic acid […] and glucose 1.1 (95% O2/5% CO2; pH 7.4). Each ring was mounted under 2 g passive tension. Isometric tension was recorded with a Grass transducer (Grass FT03) attached to a BIOPAC MP150 System. Preparations were allowed to equilibrate for 1 h, and then contracted submaximally with noradrenaline (NA, 1 μM) and, when the contraction was stable, acetylcholine (ACh, 10 μM) was added. A relaxant response to ACh indicated the presence of a functional endothelium. […] When a stable precontraction was reached, a cumulative concentration-response curve to either of the vasorelaxant agents was obtained in the presence of a functional endothelium. Each arterial ring was exposed to only one combination of inhibitor and vasorelaxant. […]
Example 2 was evaluated for vessel relaxation.

Row | EC50 [2] [µM] | SMILES | Approximate change in systolic blood pressure ([1]; 1-6 h, 3 mg/kg) [mm Hg] | Approximate change in systolic blood pressure ([1]; 6-12 h, 3 mg/kg) [mm Hg] | Approximate change in systolic blood pressure ([1]; 12-18 h, 3 mg/kg) [mm Hg] | Approximate change in systolic blood pressure ([1]; 1-6 h) [mm Hg] | Approximate change in systolic blood pressure ([1]; 6-12 h) [mm Hg] | Approximate change in systolic blood pressure ([1]; 12-18 h) [mm Hg]
1 | – | CCOc1nc2cccc(C(=O)OC(C)OC(=O)[C@@H]3C[C@H](OC)[C@@H](O[N+](=O)[O-])C3)c2n1Cc1ccc(-c2ccccc2-c2nnn[nH]2)cc1 (stereo partly drawn) [Example 2, D1, 1-({[(1R,3S,4S)-3-methoxy-4-(nitrooxy)cyclopentyl]carbonyl}oxy)ethyl 2-ethoxy-1-{[2′-(1H-tetrazol-5-yl)biphenyl-4-yl]methyl}-1H-benzimidazole-7-carboxylate] | −15 | −11 | −1 | – | – | –
2 | – | CCCCc1nc(Cl)c(C(=O)O[C@H](C)OC(=O)[C@@H]2C[C@H](OC)[C@@H](O[N+](=O)[O-])C2)n1Cc1ccc(-c2ccccc2-c2nnn[nH]2)cc1 [Example 7] | – | – | – | −9 | −1 | 2
3 | > 25 | CCOc1nc2cccc(C(=O)OC(C)OC(=O)[C@@H]3C[C@H](OC)[C@@H](O[N+](=O)[O-])C3)c2n1Cc1ccc(-c2ccccc2-c2nnn[nH]2)cc1 (stereo partly drawn) [Example 2, D2, 1-({[(1R,3S,4S)-3-methoxy-4-(nitrooxy)cyclopentyl]carbonyl}oxy)ethyl 2-ethoxy-1-{[2′-(1H-tetrazol-5-yl)biphenyl-4-yl]methyl}-1H-benzimidazole-7-carboxylate] | −19 | −12 | −5 | – | – | –
4 | – | CCCCC(=O)N(Cc1ccc(-c2ccccc2-c2nnn[nH]2)cc1)[C@H](C(=O)O[C@@H](C)OC(=O)[C@@H]1C[C@H](OC)[C@@H](O[N+](=O)[O-])C1)C(C)C [Example 5, (1S)-1-({[(1R,3S,4S)-3-methoxy-4-(nitrooxy)cyclopentyl]carbonyl}oxy)ethyl N-pentanoyl-N-{[2′-(1H-tetrazol-5-yl)biphenyl-4-yl]methyl}-L-valinate] | – | – | – | −8 | −2 | 8
